Assay results as given in patent publication US9695155B2, “Herbicidal substituted pyrimidinyloxy benzene compounds” (E. I. DU PONT DE NEMOURS AND COMPANY, priority 2013, dated 2017).

Experiments:
kochia [1] = experiment: Test A preemergence; format: in vivo, Kochia scoparia
In short: (§1)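 Greenhouse pot test, loam/sand soil. Formulation: non-phytotoxic solvent mix plus surfactant. Pre: directed spray onto soil after sowing. Post: plants at 1–2 leaf, 2–10 cm. Rated visually vs untreated controls at ~10 d, 0 (no effect) to 100 (complete control).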

ragweed = experiment: Test A preemergence; format: in vivo, Ambrosia elatior
In short: as §1

Italian ryegrass = experiment: Test A preemergence; format: in vivo, Lolium multiflorum
In short: as §1

kochia [2] = experiment: Test A postemergence; format: in vivo, Kochia scoparia; conditions: 0 to 100 scale where 0 is no effect and 100 is complete control
In short: as §1

galium = experiment: Test A postemergence; format: in vivo, Galium aparine; conditions: 0 to 100 scale where 0 is no effect and 100 is complete control
In short: as §1

ducksalad = experiment: Test C flooded paddy test; format: in vivo, Heteranthera limosa; conditions: Flood, scale 0 to 100 (0 no effect, 100 complete control), 13 to 15 days
In short: (§2)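 Flooded 3 cm over soil; compound into paddy water; depth kept constant. Greenhouse 13–15 d.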

barnyardgrass [3] = experiment: Test C flooded paddy test; format: in vivo, Echinochloa crus-galli; conditions: Flood, scale 0 to 100 (0 no effect, 100 complete control), 13 to 15 days
In short: as §2

corn = experiment: Test E preemergence; format: in vivo, Zea mays; conditions: for Corn plant response rating: scale 0 to 100 (0 no effect, 100 complete control); for Plant response rating, Corn: scale 0 to 100, 0 no effect, 100 complete control
In short: (§3)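 Response was scored visually on a 0-100 scale (100 = complete control) versus controls after 14 to 21 days in the greenhouse. Test chemicals, formulated with surfactant in a non-phytotoxic solvent mixture, had been applied preemergence to seeds in silt loam soil or postemergence to 1- to 4-leaf plants in potting medium.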

lambsquarters = experiment: Test E preemergence; format: in vivo, Chenopodium album; conditions: for Lambsquarters plant response rating: scale 0 to 100 (0 no effect, 100 complete control); for Plant response rating, Lambsquarters: scale 0 to 100, 0 no effect, 100 complete control
In short: as §3

wild poinsettia = experiment: Test E preemergence; format: in vivo, Euphorbia heterophylla; conditions: for Poinsettia, Wild plant response rating: scale 0 to 100 (0 no effect, 100 complete control); for Plant response rating, Poinsettia, Wild: scale 0 to 100, 0 no effect, 100 complete control
In short: as §3

waterhemp = experiment: Test E preemergence; format: in vivo, Amaranthus rudis; conditions: for Waterhemp plant response rating: scale 0 to 100 (0 no effect, 100 complete control); for Plant response rating, Waterhemp: scale 0 to 100, 0 no effect, 100 complete control
In short: as §3

Brazilian crabgrass = experiment: Test E preemergence; format: in vivo, Digitaria horizontalis; conditions: for Crabgrass, Brazil plant response rating: scale 0 to 100 (0 no effect, 100 complete control); for Plant response rating, Crabgrass, Brazil: scale 0 to 100, 0 no effect, 100 complete control
In short: as §3

goosegrass = experiment: Test E preemergence; format: in vivo, Eleusine indica; conditions: for Goosegrass plant response rating: scale 0 to 100 (0 no effect, 100 complete control); for Plant response rating, Goosegrass: scale 0 to 100, 0 no effect, 100 complete control
In short: as §3

barnyardgrass [4] = experiment: Test E preemergence; format: in vivo, Echinochloa crus-galli; conditions: for Plant response rating, Barnyardgrass: scale 0 to 100, 0 no effect, 100 complete control
In short: as §3

field bindweed = experiment: Test E preemergence; format: in vivo, Convolvulus arvensis; conditions: for Field Bindweed plant response rating: scale 0 to 100 (0 no effect, 100 complete control); for Plant response rating, Field Bindweed: scale 0 to 100, 0 no effect, 100 complete control
In short: as §3

[5] = 125 g ai/ha, 0 to 100 scale where 0 is no effect and 100 is complete control
[6] = 500 g ai/ha, 0 to 100 scale, 0 no effect, 100 complete control, approx. 10 days

CCOc1cnn(-c2c(C#N)cccc2Oc2ncc(F)cn2)c1 [Compound 89]
Plant response rating, Kochia (kochia [1]; [5]): 90
Kochia plant response rating (kochia [1]; [6]): 100
Plant response rating, Ragweed (ragweed; [5]): 50
Ragweed plant response rating (ragweed; [6]): 70
Plant response rating, Ryegrass, Italian (Italian ryegrass; [5]): 0
Ryegrass, Italian plant response rating (Italian ryegrass; [6]): 10
Plant response rating, Kochia (kochia [2]; 125 g ai/ha): 80
Plant response rating, Kochia (kochia [2]; 500 g ai/ha): 90
Plant response rating, Galium (galium; 125 g ai/ha): 90
Plant response rating, Galium (galium; 500 g ai/ha): 90
Plant response rating, Ducksalad (ducksalad; 62 g ai/ha): 0
Plant response rating, Ducksalad (ducksalad; 125 g ai/ha): 65
Plant response rating, Ducksalad (ducksalad; 250 g ai/ha): 80
Plant response rating, Barnyardgrass (barnyardgrass [3]; 62 g ai/ha): 0
Plant response rating, Barnyardgrass (barnyardgrass [3]; 125 g ai/ha): 15
Plant response rating, Barnyardgrass (barnyardgrass [3]; 250 g ai/ha): 20
Corn plant response rating (corn; 31 g ai/ha): 0
Corn plant response rating (corn; 62 g ai/ha): 0
Plant response rating, Corn (corn; 125 g ai/ha): 30
Plant response rating, Corn (corn; 250 g ai/ha): 70
Lambsquarters plant response rating (lambsquarters; 31 g ai/ha): 20
Lambsquarters plant response rating (lambsquarters; 62 g ai/ha): 5
Plant response rating, Lambsquarters (lambsquarters; 125 g ai/ha): 95
Plant response rating, Lambsquarters (lambsquarters; 250 g ai/ha): 100
Poinsettia, Wild plant response rating (wild poinsettia; 31 g ai/ha): 20
Poinsettia, Wild plant response rating (wild poinsettia; 62 g ai/ha): 40
Plant response rating, Poinsettia, Wild (wild poinsettia; 125 g ai/ha): 70
Plant response rating, Poinsettia, Wild (wild poinsettia; 250 g ai/ha): 85
Waterhemp plant response rating (waterhemp; 31 g ai/ha): 0
Waterhemp plant response rating (waterhemp; 62 g ai/ha): 70
Plant response rating, Waterhemp (waterhemp; 125 g ai/ha): 80
Plant response rating, Waterhemp (waterhemp; 250 g ai/ha): 100
Crabgrass, Brazil plant response rating (Brazilian crabgrass; 31 g ai/ha): 20
Crabgrass, Brazil plant response rating (Brazilian crabgrass; 62 g ai/ha): 90
Plant response rating, Crabgrass, Brazil (Brazilian crabgrass; 125 g ai/ha): 100
Plant response rating, Crabgrass, Brazil (Brazilian crabgrass; 250 g ai/ha): 100
Goosegrass plant response rating (goosegrass; 31 g ai/ha): 0
Goosegrass plant response rating (goosegrass; 62 g ai/ha): 0
Plant response rating, Goosegrass (goosegrass; 125 g ai/ha): 5
Plant response rating, Goosegrass (goosegrass; 250 g ai/ha): 50
Barnyardgrass plant response rating (barnyardgrass [4]; 31 g ai/ha, preemergence, scale 0 to 100 (0 no effect, 100 complete control)): 0
Plant response rating, Barnyardgrass (barnyardgrass [4]; Preemergence, 62 g ai/ha): 20
Plant response rating, Barnyardgrass (barnyardgrass [4]; preemergence, 125 g ai/ha): 70
Plant response rating, Barnyardgrass (barnyardgrass [4]; preemergence, 250 g ai/ha): 98
Field Bindweed plant response rating (field bindweed; 31 g ai/ha): 35
Field Bindweed plant response rating (field bindweed; 62 g ai/ha): 75
Plant response rating, Field Bindweed (field bindweed; 125 g ai/ha): 95
Plant response rating, Field Bindweed (field bindweed; 250 g ai/ha): 90
